Values of other authors as cited in patent US20080221049A1, “Free-flowing lyophilized tobramycin formulation” (APP Pharmaceuticals, LLC., priority 2004, published 2008).
Structures can show the parent of a compound that is named as a salt. Where two headings read alike, the source gives them in different places.

Conditions: after reconstitution, e.g. with 30 mL Sterile Water for Injection

- time within which the reconstituted solution should be used (stored at room temperature): ≤ 24 h
- time within which the reconstituted solution should be used (stored under refrigeration): ≤ 96 h
SMILES: NCC1OC(OC2C(N)CC(N)C(OC3OC(CO)C(O)C(N)C3O)C2O)C(N)CC1O [Tobramycin sulfate, 0-3-amino-3-deoxy-α-D-glucopyranosyl-(1→4) —O—[2,6-diamino-2,3,6-trideoxy-α-D-ribo-hexopyranosyl-(1→6)]-2-deoxy-L-streptamine, sulfate (2:5)(salt)]
